Reference: patent US12473304B2, “Heterocyclic PAD4 inhibitors” (BRISTOL-MYERS SQUIBB COMPANY, priority 2020, dated 2025)

What follows are molecules tested against human PAD4 (hPAD4) (Homo sapiens (Human), UniProt Q9UM07) (assay: RFMS Human PAD4 Functional Assay 1). Conditions: RFMS assay 1; 5 nM hPAD4, 250 μM BAEE substrate, 50 μM calcium, 37° C.
Assay type: biochemical
Procedure: RFMS Human PAD4 Functional Assay 1:
Compounds were solubilized in 100% DMSO to achieve all) mM compound concentration. Compound stock solutions were stored at RT. A series of dilutions were prepared in DMSO and mixed 8 times with 20 μL mixing volume. Final top concentration of compound in the assay is 50 μM. Final assay conditions were as follows: • Reaction volume: 26 μl • Assay buffer: 25 mM hepes, pH 7.5, 5 mM NaCl, 1 mM DTT, 0.2 mg/ml BSA, 0.01% CHAPS, 50 μM Calcium, and 5 μM TPEN • Final concentrations: 5 nM hPAD4 enzyme, 250 μM BASE, and 0.5% DMSO • Total incubation time: 30 mins compound and enzyme preincubation at 37° C., 90 min enzyme/substrate reaction, 30 min reaction with phenyl glyoxal at 37° C. • Stop solution: 40 μl 5% TCA in ACN
0.13 μL of compound solution was added to 13 μL of 10 nM PAD4 in assay buffer. After 30 min 13 μl of 500 μM of BAEE was added in 25 mM hepes, pH 7.5, 5 mM NaCl, 1 mM DTT, 0.2 mg/ml BSA, 0.01% CHAPS, 50 μM Calcium, 5 μM TPEN was added and the reaction incubated for 90 min at 37° C. The enzymatic reaction was quenched by addition of 15 μl of 6.1N TCA, 100% Final Concentration is 20%, 35 μl of 8.5 mM phenyl glyoxal (final concentration 4 mM) is then added and the reaction is incubated for 30 min at 37° C.
After 30 minutes the plates are spun down to remove all precipitate. The enzyme reaction was quenched with an equal volume of methanol containing internal standard (modified citrulline). Samples were loaded onto the Rapid Fire RF300 system (Agilent) wherein they were first sipped for 1000 ms and then directly loaded to a C18 separations cartridge using a mixture of acetonitrile containing 0.01% formic acid for 3000 ms desalting. The flow rate of the mobile phase was 1.5 ml/min. Once the samples were eluted from the cartridge, a mobile phase of acetonitrile containing 0.01% formic acid was used to move the samples into the mass spectrometer for 4000 ms at a flow rate of 1.25 ml/min/Sciex API5500 triple quadrupole mass spectrometer (Applied Biosystems) equipped with ESI was used to analyze the peptidyl citrulline and internal standard ions.
MRM transition of product and internal standard were monitored at m/z 424.5 to 350.4 and m/z 293 to 247 respectively. The dwell time for each transition was set at 200 ms, and the ESI voltage was used at 5500 with a source temperature of 400° C. Extracted ion peaks for each transition were integrated using the Rapid Fire Integrator software. Peak area of analyte was normalized with internal standard.).

Sequence of human PAD4 (hPAD4) (Q9UM07 whole entry): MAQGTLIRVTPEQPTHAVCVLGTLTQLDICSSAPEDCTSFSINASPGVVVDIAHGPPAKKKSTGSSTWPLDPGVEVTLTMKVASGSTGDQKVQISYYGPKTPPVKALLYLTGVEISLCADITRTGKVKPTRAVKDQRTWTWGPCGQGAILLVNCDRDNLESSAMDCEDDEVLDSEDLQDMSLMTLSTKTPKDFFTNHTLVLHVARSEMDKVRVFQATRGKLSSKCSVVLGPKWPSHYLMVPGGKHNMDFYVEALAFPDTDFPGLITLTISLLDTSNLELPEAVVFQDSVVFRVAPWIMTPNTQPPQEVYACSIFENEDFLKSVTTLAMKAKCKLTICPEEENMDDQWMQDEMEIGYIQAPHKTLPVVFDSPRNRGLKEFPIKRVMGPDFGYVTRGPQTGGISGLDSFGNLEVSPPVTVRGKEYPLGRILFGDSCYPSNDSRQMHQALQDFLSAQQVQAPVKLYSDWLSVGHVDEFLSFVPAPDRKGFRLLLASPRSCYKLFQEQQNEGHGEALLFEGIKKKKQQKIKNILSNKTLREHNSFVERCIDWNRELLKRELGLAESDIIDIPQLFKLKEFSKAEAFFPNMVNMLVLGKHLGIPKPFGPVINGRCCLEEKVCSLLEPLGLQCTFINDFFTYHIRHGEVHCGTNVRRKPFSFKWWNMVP

SMILES	IC50 [nM]
Cc1c(-c2cc3ccc(C(C)(O)C(F)(F)F)nc3n2CC2CC2)nn2cc(C(=O)N3CCC[C@@H](N)C3)ccc12 (mixture of isomers) [Example 382, 2-(2-{6-[(3R)-3-Aminopiperidine-1-carbonyl]-3-methylpyrazolo[1,5-a]pyridin-2-yl}-1-(cyclopropylmethyl)-1H-pyrrolo[2,3-b]pyridin-6-yl)-1,1,1-trifluoropropan-2-ol]	150
Cc1c(-c2cc3ccc(C(C)O)nc3n2CC2CC2)nn2cc(C(=O)N3CCC[C@@H](N)C3)ccc12 (mixture of isomers) [Example 385, 1-(2-{6-[(3R)-3-Aminopiperidine-1-carbonyl]-3-methylpyrazolo[1,5-a]pyridin-2-yl}-1-(cyclopropylmethyl)-1H-pyrrolo[2,3-b]pyridin-6-yl)ethan-1-ol]	270
COc1cc(C(=O)N2CCC[C@@H](N)C2)cn2nc(-c3cc4cccc(C5CCN(C(=O)C6CC(O)(C(F)(F)F)C6)CC5)c4n3CC3CC3)c(C)c12 (mixture of isomers) [Example 398, (R)-(3-Aminopiperidin-1-yl)(2-(1-(cyclopropylmethyl)-7-(1-(3-hydroxy-3-(trifluoromethyl)cyclobutane-1-carbonyl)piperidin-4-yl)-1H-indol-2-yl)-4-methoxy-3-methylpyrazolo[1,5-a]pyridin-6-yl)methanone]	40
COc1cc(C(=O)N2C[C@H](N)C[C@@H](F)C2)cn2nc(-c3cc4cccc(C5CCN(C(=O)C6CC(O)(C(F)(F)F)C6)CC5)c4n3CC3CC3)c(C)c12 (mixture of isomers) [Example 399, ((3R,5R)-3-Amino-5-fluoropiperidin-1-yl)(2-(1-(cyclopropylmethyl)-7-(1-(3-hydroxy-3-(trifluoromethyl)cyclobutane-1-carbonyl)piperidin-4-yl)-1H-indol-2-yl)-4-methoxy-3-methylpyrazolo[1,5-a]pyridin-6-yl)methanone]	50
COc1cc(C(=O)N2CCC[C@@H](N)C2)cn2nc(-c3cc4cccc(C5CCN(C(=O)C6CCCO6)CC5)c4n3CC3CC3)c(C)c12 (mixture of isomers) [Example 400, ((R)-3-Aminopiperidin-1-yl)(2-(1-(cyclopropylmethyl)-7-(1-(tetrahydrofuran-2-carbonyl)piperidin-4-yl)-1H-indol-2-yl)-4-methoxy-3-methylpyrazolo[1,5-a]pyridin-6-yl)methanone]	660

Now from value to molecule:

IC50 [nM]	SMILES
120	Cc1c(-c2cc3ccc(OCC4CNC(=O)C4)nc3n2CC2CC2)nn2cc(C(=O)N3CC4CCC3[C@@H]4N)cc(F)c12 (mixture of isomers) [Example 275, 4-{[(2-{6-[(7R)-7-Amino-2-azabicyclo[2.2.1]heptane-2-carbonyl]-4-fluoro-3-methylpyrazolo[1,5-a]pyridin-2-yl}-1-(cyclopropylmethyl)-1H-pyrrolo[2,3-b]pyridin-6-yl)oxy]methyl}pyrrolidin-2-one]
20	Cc1c(-c2cc3ccc(C(C)(O)C(F)F)nc3n2CC2CC2)nn2cc(C(=O)N3CC4CCC3[C@@H]4N)ccc12 (mixture of isomers) [Example 381, 2-(2-{6-[(7R)-7-Amino-2-azabicyclo[2.2.1]heptane-2-carbonyl]-3-methylpyrazolo[1,5-a]pyridin-2-yl}-1-(cyclopropylmethyl)-1H-pyrrolo[2,3-b]pyridin-6-yl)-1,1-difluoropropan-2-ol]
8250	Cc1c(-c2cc3cccc(C4CCN(C(=O)C5CC(O)C5)CC4)c3n2CC2CC2)nn2cc(C(=O)N3C[C@H](N)C[C@@H](F)C3)cc(F)c12 (mixture of isomers) [Example 419, ((3R,5R)-3-Amino-5-fluoropiperidin-1-yl)(2-(1-(cyclopropylmethyl)-7-(1-(3-hydroxycyclobutane-1-carbonyl)piperidin-4-yl)-1H-indol-2-yl)-4-fluoro-3-methylpyrazolo[1,5-a]pyridin-6-yl)methanone]
